SMILES	melting point [°C]
O=C1COc2cc(S(=O)(=O)Cl)c(Cl)cc2N1	248 to 250
Cc1cc(C(=O)CCl)c(C)n1CC(N)=O	218 to 220
CC(C)CS(=O)(=O)CCC(=O)O	110 to 112
CNc1ccc(C(=O)N2CCOCC2)cc1C	107 to 109
Cc1nnc(S)n1CC(N)=O	232 to 234
c1ccc(Nc2ncccn2)cc1	107 to 109
Cc1oc(S(N)(=O)=O)cc1C(=O)O	209 to 211
C/C(=N\O)c1cc(C(=O)O)c[nH]c1=O	281 to 283
CC1CCCC(C)N1C(=O)c1cc(Cl)ccc1N (configuration not stated)	169 to 171
O=C(O)c1cnc2c(Br)cccc2c1O	276 to 278
ClCc1coc(-c2ccccc2)n1	51 to 55
Cc1ccccc1NS(=O)(=O)c1ccc(C(=O)O)cc1	256 to 258
O=C(Nc1ccccn1)c1ccc(O)cc1	176 to 178
O=C(O)c1ccc(-n2cccn2)c(F)c1	235 to 237
COc1ccccc1NS(=O)(=O)c1cccc(N)c1	35 to 37
O=C1COc2cccc(O)c2N1	247 to 249
CC(Cl)C(=O)NCc1ccccc1 (configuration not stated)	75 to 77
Nc1ccc(NC(=O)C2CC2)cc1C(F)(F)F	145 to 147
C=CS(=O)(=O)c1cc(F)cc([N+](=O)[O-])c1	90 to 92
CCOC(=O)Cn1cc(Br)ccc1=O	81 to 83
COC(=O)C(O)c1cccc(Cl)c1 (configuration not stated)	80 to 82
COc1ccnc(Cl)n1	57 to 58
Cc1nc(S)nc(C)c1CCC(=O)O	154 to 156
O=C(O)CCCNS(=O)(=O)c1cccc(C(F)(F)F)c1	152 to 155

SMILES	melting point [°C]
Cc1cc2cc(C=O)oc2cc1C	69 to 71
O=C(O)C1CC(O)CN1C(=O)Cc1ccccc1F (configuration not stated)	201 to 203
CC(C)n1nnnc1-c1ccc(N)cc1F	118 to 120
O=C(O)/C=C/c1cc(Cl)c2c(c1)OCCO2	261 to 263
Nc1ccnc2ccnn12	198 to 200
NC(=O)CNS(=O)(=O)c1ccc(F)c(C(=O)O)c1	201 to 203
O=C(O)c1ccc(CNC(=O)C2CCCC2)cc1	228 to 230
Cc1sc2nc(CCCC(=O)O)[nH]c(=O)c2c1C	243 to 245
C=CCc1cc([N+](=O)[O-])ccc1O	68 to 70
Nc1cc(-c2ccc(F)cc2)no1	100 to 102
Nc1nc(CCCC(=O)O)cs1	89 to 91
Cc1ccc(S(=O)(=O)NC(CC(N)=O)C(=O)O)cc1C (configuration not stated)	179 to 181
O=C(O)COc1ccc(F)cc1Cl	140 to 142
CC(Cl)c1nc2ccccc2c(=O)[nH]1 (configuration not stated)	250 to 252
C=CCNC(=O)c1ccc(Cl)nc1	105 to 107
NC(=S)c1cc([N+](=O)[O-])ccc1N	171 to 173
COc1ccc(NC(=O)/C=N/O)cc1	180 to 182
COCc1cccc(CNC(=O)CCl)c1	41 to 43
CC1=C(C(=O)O)CCC1	130 to 132
CNC(=O)NC(=O)C(Cl)c1ccccc1 (configuration not stated)	130 to 132
Clc1nc(C2CC2)nc2sc3c(c12)CCCC3	112 to 114
Cc1ccc(SC2CCCC2)c(C(=O)O)c1	130 to 132
CS(=O)(=O)NCc1ccccn1	88 to 90
COc1ccccc1CNC(N)=O	124 to 126

SMILES	melting point [°C]
CC(C)c1nnnn1CC(=O)O	179 to 181
O=C(O)CCc1nc2ccccc2c(=O)[nH]1	239 to 241
Oc1nc(S)nc2c1CCC2	288 to 290
Cc1ccc2c(O)c(C(=O)O)cnc2n1	279 to 281
CC(=O)Nc1ccc(CCO)cc1	106 to 108
CCOC(=O)C(NC(=O)c1ccccc1)C(=O)OCC	62 to 64
Cn1ccnc1Sc1ccccc1N	121 to 123
COc1cc(C)cc(C(=O)O)c1O	189 to 191
Sc1nc(-c2cccs2)c(-c2cccs2)[nH]1	293 to 295
CCS(=O)(=O)Nc1ccccc1F	68 to 70
NC(=O)C1COc2ccccc2O1 (configuration not stated)	141 to 143
O=C1CCCC(C(F)(F)F)N1 (configuration not stated)	123 to 125
O=S(=O)(c1cccc(F)c1)N1CCNCC1	97 to 99
Cc1ccc(-c2nnco2)cc1N	136 to 138
COC(=O)c1n[nH]c(C)c1Cl	129 to 131
O=C(O)c1cccn1CCc1ccccc1	119 to 121
N#CCC(=O)c1ccc(C(F)(F)F)cc1	48 to 50
O=C(O)c1ccnc(OC2CCOC2)c1 (configuration not stated)	109 to 111
O=S(=O)(Cl)c1ccc(OCC2CCCCO2)cc1 (configuration not stated)	64 to 66
CC(NC(=O)c1ccc(S(=O)(=O)N(C)C)cc1)C(=O)O (configuration not stated)	180 to 182
N#Cc1ccc(Oc2cccc([N+](=O)[O-])c2)cc1	124 to 126
O=C(O)C1(c2cccc(C(F)(F)F)c2)CCCCC1	144 to 146
O=C(O)CCNS(=O)(=O)c1ccc(Cl)cc1	155 to 159
O=C1CC2(CCCC2)Oc2ccccc21	35 to 37

— a melting point compilation (Tetko et al.)
